Measured values taken from US11464770B2, “Anticancer pharmaceutical composition” (NATIONAL CANCER CENTER, priority 2016, dated 2022).
pIC50: −log10 of the molar value. Like-named read-outs stand apart in the source and are kept apart here.

Assays:
[1] = tested on: prostate cancer cell lines (e.g. DU145/TXR); experiment: Cell based assay, cell viability (CellTiter-Glo), prostate cancer cell lines; details: Homo sapiens, 72 hours treatment, final concentration 0 to 2 μM
Experimental: (§1) Commercially available bladder cancer, prostate cancer, lung cancer, breast cancer, blood cancer, pancreatic cancer, colorectal cancer, brain cancer, neuroblastoma, melanoma, liver cancer, cervical carcinoma, ovarian cancer, renal cancer, and papilloma cell lines were each treated with trypsin-EDTA and cultured, followed by being seeded in each well of a 96 well plate. After 24 hours of treatment at constant temperature, the respective cells were treated with the candidate compound so that a final concentration became 0 to 2 μM. The treated cells were additionally cultured for 72 hours, and cell viability was measured by using an ATP detection method (CellTiter-Glo® Luminescent Cell Viability Assay, Promega).

brain cancer cell lines = experiment: Cell based assay, cell viability (CellTiter-Glo), brain cancer cell lines; details: Homo sapiens
Experimental: as §1, with “After 24 hours of treatment at constant temperature, the respective cells were treated with the candidate compound so that a final concentration became 0 to 2 μM.” left out

[2] = CWR22 cells, read-out: IC50, prostate cancer cell line CWR22
[3] = DU-145, DU145/TXR cells, read-out: IC50, prostate cancer cell line DU145/TXR
[4] = DU-145, DU145 cells, read-out: IC50, prostate cancer cell line DU145
[5] = LNcap cells, read-out: IC50, prostate cancer cell line LNcap
[6] = PC-3 cells, read-out: IC50, prostate cancer cell line PC-3
[7] = U138-MG, U-138 MG cell line, read-out: IC50, Brain cancer cell line U-138 MG
[8] = T98G cell line, read-out: IC50, Brain cancer cell line T98G
[9] = U-251 MG cell line, read-out: IC50, Brain cancer cell line U-251 MG

pIC50 [1, 2]	pIC50 [1, 3]	pIC50 [1, 4]	pIC50 [1, 5]	pIC50 [1, 6]	pIC50 (brain cancer cell lines; [7])	pIC50 (brain cancer cell lines; [8])	pIC50 (brain cancer cell lines; [9])	Compound
< 5.70	< 5.70	< 5.70	< 5.70	< 5.70	< 5.00	< 5.00	< 5.70	CC(=O)c1c(SCC#N)[nH]c2c(Br)ccc(Cl)c2c1=O [Compound 66, 2-((3-acetyl-8-bromo-5-chloro-4-oxo-1,4-dihydroquinolin-2-yl)thio)acetonitrile]
< 5.70	< 5.70	< 5.70	< 5.70	< 5.70	< 5.00	< 5.00	< 5.70	CC(=O)c1c(S/C=C\C(=O)O)[nH]c2c(Br)ccc(Cl)c2c1=O [Compound 67, (Z)-3-((3-acetyl-8-bromo-5-chloro-4-oxo-1,4-dihydroquinolin-2-yl)thio)acrylic acid]
5.79	6.03	6.08	< 5.70	5.91	5.94	< 5.70	6.03	CC(=O)c1c([S+]([O-])Cc2ccc(S(F)(F)(F)(F)F)cc2)[nH]c2c(Br)ccc(Cl)c2c1=O (centres unmarked) [Compound 68, 3-acetyl-8-bromo-5-chloro-2-((4-(pentafluoro-16-sulfanyl)benzyl)sulfinyl)quinolin-4(1H)-one]
5.73	5.95	6.00	< 5.70	5.89	5.81	< 5.00	5.94	CC(=O)c1c([S+]([O-])Cc2ccc(S(F)(F)(F)(F)F)cc2F)[nH]c2c(Br)ccc(Cl)c2c1=O (centres unmarked) [Compound 69, 3-acetyl-8-bromo-5-chloro-2-((2-fluoro-4-(pentafluoro-16-sulfanyl)benzyl)sulfinyl)quinolin-4(1H)-one]
< 5.70	6.03	6.03	< 5.70	5.83	5.81	< 5.70	5.89	CC(=O)c1c([S+]([O-])Cc2cccc(S(F)(F)(F)(F)F)c2)[nH]c2c(Br)ccc(Cl)c2c1=O (centres unmarked) [Compound 77, 3-acetyl-8-bromo-5-chloro-2-((3-(pentafluoro--sulfanyl)benzyl)sulfinyl)quinolin-4(1H)-one]
< 5.70	< 5.70	< 5.70	< 5.70		< 5.00	< 5.00	< 5.70	CC(=O)c1c([S+]([O-])Cc2ccc(SC(F)(F)F)cc2)[nH]c2c(Cl)ccc(Cl)c2c1=O (centres unmarked) [Compound 79, 3-acetyl-5,8-dichloro-2-((4-((trifluoromethyl)thio)benzyl)sulfinyl)quinolin-4(1H)-one]
< 5.70	< 5.70	< 5.70	< 5.70		< 5.00	< 5.00	< 5.70	CC(=O)c1c([S+]([O-])Cc2ccc(S(F)(F)(F)(F)F)cc2)[nH]c2c(F)ccc(F)c2c1=O (centres unmarked) [Compound 80, 3-acetyl-5,8-difluoro-2-((4-(pentafluoro--sulfanyl)benzyl)sulfinyl)quinolin-4(1H)-one]
< 5.70	< 5.70	< 5.70	< 5.70		< 5.70	< 5.00	< 5.70	CC(=O)c1c([S+]([O-])Cc2ccc(C(F)(F)F)o2)[nH]c2c(F)ccc(F)c2c1=O (centres unmarked) [Compound 81, 3-acetyl-5,8-difluoro-2-(((5-(trifluoromethyl)furan-2-yl)methyl)sulfinyl)quinolin-4(1H)-one]
< 5.70	< 5.70	< 5.70	< 5.70		< 5.70	< 5.00	< 5.70	CC(=O)c1c([S+]([O-])Cc2cc(C)on2)[nH]c2c(F)ccc(F)c2c1=O (centres unmarked) [Compound 82, 3-acetyl-5,8-difluoro-2-(((5-methylisoxazol-3-yl)methyl)sulfinyl)quinolin-4(1H)-one]
< 5.70	< 5.70	< 5.70	< 5.70		< 5.00	< 5.00	< 5.70	CC(C)C(=O)c1c([S+]([O-])Cc2ccc(SC(F)(F)F)cc2)[nH]c2c(F)ccc(F)c2c1=O (centres unmarked) [Compound 85, 5,8-difluoro-3-isobutyryl-2-((4-((trifluoromethyl)thio)benzyl)sulfinyl)quinolin-4(1H)-one]
< 5.70	< 5.70	< 5.70	< 5.70		< 5.00	< 5.00	< 5.70	O=C(c1ccccc1)c1c([S+]([O-])Cc2ccc(S(F)(F)(F)(F)F)cc2)[nH]c2c(F)ccc(F)c2c1=O (centres unmarked) [Compound 87, 3-benzoyl-5,8-difluoro-2-((4-(pentafluoro--sulfanyl)benzyl)sulfinyl)quinolin-4(1H)-one]
< 5.70	< 5.70	< 5.70	< 5.70		< 5.00	< 5.00	< 5.70	Cc1cc(C[S+]([O-])c2[nH]c3c(Cl)ccc(Cl)c3c(=O)c2C(=O)c2ccccc2)no1 (centres unmarked) [Compound 88, 3-benzoyl-5,8-dichloro-2-(((5-methylisoxazol-3-yl)methyl)sulfinyl)quinolin-4(1H)-one]
< 5.70	< 5.70	< 5.70	< 5.70	< 5.70	< 5.00	< 5.00	< 5.70	CC(=O)c1c([S+]([O-])CN2C(=O)c3ccccc3C2=O)[nH]c2c(Cl)ccc(Cl)c2c1=O (centres unmarked) [Compound 90, 2-(((3-acetyl-5,8-dichloro-4-oxo-1,4-dihydroquinolin-2-yl)sulfinyl)methyl)isoindoline-1,3-dione]
< 5.70	5.70	< 5.70	< 5.70		< 5.70	< 5.00	< 5.70	COC(=O)c1ccc(C[S+]([O-])c2[nH]c3c(Cl)ccc(Cl)c3c(=O)c2C(C)=O)cc1 (centres unmarked) [Compound 91, methyl 4-(((3-acetyl-5,8-dichloro-4-oxo-1,4-dihydroquinolin-2-yl)sulfinyl)methyl)benzoate]
< 5.70	< 5.70	< 5.70	< 5.70	< 5.70	< 5.00	< 5.00	< 5.70	COc1cccc2[nH]c(SCc3ccc(S(F)(F)(F)(F)F)cc3)c(C(C)=O)c(=O)c12 [Compound 92, 3-acetyl-5-methoxy-2-((4-(pentafluoro--sulfanyl)benzyl)thio)quinolin-4(1H)-one]
< 5.70	< 5.70	< 5.70	< 5.70		< 5.00	< 5.00	< 5.70	COc1cccc2[nH]c([S+]([O-])Cc3ccc(S(F)(F)(F)(F)F)cc3)c(C(C)=O)c(=O)c12 (centres unmarked) [Compound 93, 3-acetyl-5-methoxy-2-((4-(pentafluoro--sulfanyl)benzyl)sulfinyl)quinolin-4(1H)-one]
< 5.70	< 5.70	< 5.70	< 5.70		< 5.70	< 5.00	< 5.70	COc1cccc2[nH]c([S+]([O-])Cc3cc(C)on3)c(C(C)=O)c(=O)c12 (centres unmarked) [Compound 94, 3-acetyl-5-methoxy-2-(((5-methylisoxazol-3-yl)methyl)sulfinyl)quinolin-4(1H)-one]
5.72	5.75	5.76	< 5.70	< 5.70	< 5.70	< 5.00	5.88	Cc1cc(C[S+]([O-])c2[nH]c3c(Br)ccc(Cl)c3c(=O)c2C(=O)C2CC2)no1 (centres unmarked) [Compound 96, 8-bromo-5-chloro-3-(cyclopropanecarbonyl)-2-(((5-methylisoxazol-3-yl)methyl)sulfinyl)quinolin-4(1H)-one]
5.83	5.82	5.89	< 5.70	5.77	5.77	< 5.00	5.95	Cc1cc(C[S+]([O-])c2[nH]c3c(Cl)ccc(Cl)c3c(=O)c2C(=O)C2CC2)no1 (centres unmarked) [Compound 97, 5,8-dichloro-3-(cyclopropanecarbonyl)-2-(((5-methylisoxazol-3-yl)methyl)sulfinyl)quinolin-4(1H)-one]
5.81	5.72	5.72	< 5.70	< 5.70	< 5.70	< 5.00	5.90	CC(=O)c1c([S+]([O-])Cc2ccc(C#N)s2)[nH]c2c(Br)ccc(Cl)c2c1=O (centres unmarked) [Compound 98, 5-(((3-acetyl-8-bromo-5-chloro-4-oxo-1,4-dihydroquinolin-2-yl)sulfinyl)methyl)thiophene-2-carbonitrile]
5.91	5.97	6.01	< 5.70	5.82	5.94	< 5.00	6.10	CC(=O)c1c([S+]([O-])Cc2ccc(-n3cccn3)nc2)[nH]c2c(Br)ccc(Cl)c2c1=O (centres unmarked) [Compound 99, 2-(((6-(1H-pyrazol-1-yl)pyridin-3-yl)methyl)sulfinyl)-3-acetyl-8-bromo-5-chloroquinolin-4(1H)-one]
< 5.70	< 5.70	< 5.70	< 5.70		< 5.00	< 5.00	< 5.70	CC(=O)c1c([S+]([O-])Cc2ccc(N)nc2)[nH]c2c(Br)ccc(Cl)c2c1=O (centres unmarked) [Compound 100, 3-acetyl-2-(((6-aminopyridin-3-yl)methyl)sulfinyl)-8-bromo-5-chloroquinolin-4(1H)-one]
< 5.70	5.85	5.87	< 5.70	< 5.70	< 5.70	< 5.00	< 5.70	O=C(c1c([S+]([O-])Cc2ccc(SC(F)(F)F)cc2)[nH]c2c(Br)ccc(Cl)c2c1=O)C1CC1 (centres unmarked) [Compound 101, 8-bromo-5-chloro-3-(cyclopropanecarbonyl)-2-((4-((trifluoromethyl)thio)benzyl)sulfinyl)quinolin-4(1H)-one]
